Test results as given in ChEMBL document CHEMBL4725294, “Centrally Active Multitarget Anti-Alzheimer Agents Derived from the Antioxidant Lead CR-6” (J Med Chem, 2020).
Activity calls are given as the source filed them. The calls are words filed in the database; no cut-off is given here.

Legend:
[1] = Drug level in human liver microsomes treated with N-{8-[(6-Chloro-1,2,3,4-tetrahydroacridin-9-yl)amino]octyl}-2-(6-hydroxy-7-methoxy-2-methylchroman-2-yl)acetamide at 5 uM measured up to 60 mins by UPLC-MS/MS analysis; assay type: ADME, Microsome; conditions: 1 h
[2] = Drug level in mouse liver microsomes treated with N-{8-[(6-Chloro-1,2,3,4-tetrahydroacridin-9-yl)amino]octyl}-2-(6-hydroxy-7-methoxy-2-methylchroman-2-yl)acetamide at 5 uM measured up to 60 mins by UPLC-MS/MS analysis; assay type: ADME, Microsome; conditions: 1 h
[3] = Drug level in rat liver microsomes treated with N-{8-[(6-Chloro-1,2,3,4-tetrahydroacridin-9-yl)amino]octyl}-2-(6-hydroxy-7-methoxy-2-methylchroman-2-yl)acetamide at 5 uM measured up to 60 mins by UPLC-MS/MS analysis; assay type: ADME, Microsome; conditions: 1 h
[4] = in vitro; conditions: PAMPA
Description: Permeability of compound in PBS/EtOH buffer (7:3) PAMPA-BBB assay

[5] = biological target: T1, Beta-secretase 1 (Homo sapiens, UniProt P56817); assay: Inhibition human BACE1 expressed in baculovirus expression system using Panvera peptide as substrate measured after 60 mins by fluorescence assay
[6] = biological target: T2, Acetylcholinesterase (Homo sapiens, UniProt P22303)
Description: (§1) Inhibition of recombinant human AChE expressed in HEK293 cells using acetylthiocholine iodide as substrate preincubated for 15 mins followed by substrate addition by Ellman's method

[7] = biological target: T3, Cholinesterase (Homo sapiens, UniProt P06276)
Description: (§2) Inhibition of recombinant human BChE using butyrylthiocholine iodide as substrate preincubated for 15 mins followed by substrate addition by Ellman's method

[8] = biological target: T2, Acetylcholinesterase; assay: Inhibition of recombinant human AChE expressed in HEK293 cells at 100 uM using acetylthiocholine iodide as substrate preincubated for 15 mins followed by substrate addition by Ellman's method
[9] = biological target: T3, Cholinesterase; assay: Inhibition of recombinant human BChE at 100 uM using butyrylthiocholine iodide as substrate preincubated for 15 mins followed by substrate addition by Ellman's method
[10] = biological target: T1, Beta-secretase 1; assay: Inhibition human BACE1 expressed in baculovirus expression system at 5 uM using Panvera peptide as substrate measured after 60 mins by fluorescence assay relative to control; conditions: 1 h; for inhibition (INH): 5 µM
[11] = biological target: T3, Cholinesterase; assay: Potency index, ratio of tacrine IC50 to test compound IC50 for recombinant human BChE
[12] = biological target: T2, Acetylcholinesterase; assay: Potency index, ratio of tacrine IC50 to test compound IC50 for recombinant human AChE expressed in HEK293 cells; assay type: cell-based
[13] = biological target: T2, Acetylcholinesterase; assay: Mixed inhibition of recombinant human AChE expressed in HEK293 cells assessed as dissociation constant for enzyme-inhibitor complex using varying levels of acetylthiocholine iodide as substrate preincubated for 15 mins followed by substrate addition by Line-weaver Burk plot analysis
[14] = biological target: T2, Acetylcholinesterase; assay: Mixed inhibition of recombinant human AChE expressed in HEK293 cells assessed as dissociation constant for enzyme-substrate-inhibitor complex using varying levels of acetylthiocholine iodide as substrate preincubated for 15 mins followed by substrate addition by Line-weaver Burk plot analysis
[15] = biological target: Acetylcholinesterase (Electrophorus electricus, UniProt O42275); assay: Displacement of propidium iodide from PAS region of electric eel AChE by fluorescence assay
[16] = biological target: T2, Acetylcholinesterase; conditions: hek293
Description: as §1

[17] = biological target: T3, Cholinesterase; remark: listed apart in the source
Description: as §2

T3 sequence (P06276 whole entry): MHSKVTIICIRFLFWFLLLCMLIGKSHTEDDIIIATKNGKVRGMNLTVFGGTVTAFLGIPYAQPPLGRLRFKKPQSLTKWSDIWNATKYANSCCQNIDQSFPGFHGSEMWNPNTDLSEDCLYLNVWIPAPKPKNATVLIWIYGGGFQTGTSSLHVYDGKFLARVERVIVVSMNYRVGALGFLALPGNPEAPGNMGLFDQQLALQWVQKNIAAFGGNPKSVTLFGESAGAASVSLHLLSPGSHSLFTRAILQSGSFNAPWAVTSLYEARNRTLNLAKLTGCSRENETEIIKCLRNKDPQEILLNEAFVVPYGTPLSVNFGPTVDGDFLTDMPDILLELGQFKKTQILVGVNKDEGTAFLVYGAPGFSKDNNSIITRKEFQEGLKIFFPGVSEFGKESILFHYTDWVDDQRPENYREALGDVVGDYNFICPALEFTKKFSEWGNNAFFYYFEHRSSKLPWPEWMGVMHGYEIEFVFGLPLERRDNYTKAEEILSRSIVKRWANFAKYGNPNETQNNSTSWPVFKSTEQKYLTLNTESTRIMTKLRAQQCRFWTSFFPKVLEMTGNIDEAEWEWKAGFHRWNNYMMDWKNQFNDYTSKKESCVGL
T2 sequence (P22303 whole entry): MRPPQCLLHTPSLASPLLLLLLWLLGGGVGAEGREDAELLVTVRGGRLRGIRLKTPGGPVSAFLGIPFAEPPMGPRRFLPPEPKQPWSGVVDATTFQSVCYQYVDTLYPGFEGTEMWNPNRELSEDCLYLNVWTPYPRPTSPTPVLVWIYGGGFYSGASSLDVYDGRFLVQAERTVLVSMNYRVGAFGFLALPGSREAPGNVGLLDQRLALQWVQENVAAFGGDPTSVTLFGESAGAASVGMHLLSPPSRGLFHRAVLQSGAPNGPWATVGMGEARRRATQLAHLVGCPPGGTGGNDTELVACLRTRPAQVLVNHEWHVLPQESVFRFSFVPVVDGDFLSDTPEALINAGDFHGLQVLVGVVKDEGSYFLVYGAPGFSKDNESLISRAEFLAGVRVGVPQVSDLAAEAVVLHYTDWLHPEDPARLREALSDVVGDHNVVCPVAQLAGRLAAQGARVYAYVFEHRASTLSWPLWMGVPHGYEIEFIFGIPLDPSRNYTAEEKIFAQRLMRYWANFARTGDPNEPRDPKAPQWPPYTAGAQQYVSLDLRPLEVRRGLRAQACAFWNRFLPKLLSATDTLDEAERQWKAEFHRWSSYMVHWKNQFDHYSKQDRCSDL
T1 sequence (P56817 whole entry): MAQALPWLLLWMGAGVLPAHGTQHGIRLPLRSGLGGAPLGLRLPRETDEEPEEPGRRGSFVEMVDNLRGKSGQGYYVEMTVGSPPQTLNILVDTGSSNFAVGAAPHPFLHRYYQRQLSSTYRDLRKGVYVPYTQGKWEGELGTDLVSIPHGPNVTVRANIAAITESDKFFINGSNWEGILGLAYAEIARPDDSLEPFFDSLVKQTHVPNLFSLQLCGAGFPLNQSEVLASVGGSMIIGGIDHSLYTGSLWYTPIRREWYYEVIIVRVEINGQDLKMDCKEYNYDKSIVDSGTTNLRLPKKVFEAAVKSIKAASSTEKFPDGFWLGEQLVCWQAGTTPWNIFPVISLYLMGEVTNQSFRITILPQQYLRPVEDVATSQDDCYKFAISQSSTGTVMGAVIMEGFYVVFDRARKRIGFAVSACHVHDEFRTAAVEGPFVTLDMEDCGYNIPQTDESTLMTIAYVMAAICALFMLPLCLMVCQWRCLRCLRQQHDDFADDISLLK
Sequence of Acetylcholinesterase (Electrophorus electricus, UniProt O42275) (O42275 whole entry): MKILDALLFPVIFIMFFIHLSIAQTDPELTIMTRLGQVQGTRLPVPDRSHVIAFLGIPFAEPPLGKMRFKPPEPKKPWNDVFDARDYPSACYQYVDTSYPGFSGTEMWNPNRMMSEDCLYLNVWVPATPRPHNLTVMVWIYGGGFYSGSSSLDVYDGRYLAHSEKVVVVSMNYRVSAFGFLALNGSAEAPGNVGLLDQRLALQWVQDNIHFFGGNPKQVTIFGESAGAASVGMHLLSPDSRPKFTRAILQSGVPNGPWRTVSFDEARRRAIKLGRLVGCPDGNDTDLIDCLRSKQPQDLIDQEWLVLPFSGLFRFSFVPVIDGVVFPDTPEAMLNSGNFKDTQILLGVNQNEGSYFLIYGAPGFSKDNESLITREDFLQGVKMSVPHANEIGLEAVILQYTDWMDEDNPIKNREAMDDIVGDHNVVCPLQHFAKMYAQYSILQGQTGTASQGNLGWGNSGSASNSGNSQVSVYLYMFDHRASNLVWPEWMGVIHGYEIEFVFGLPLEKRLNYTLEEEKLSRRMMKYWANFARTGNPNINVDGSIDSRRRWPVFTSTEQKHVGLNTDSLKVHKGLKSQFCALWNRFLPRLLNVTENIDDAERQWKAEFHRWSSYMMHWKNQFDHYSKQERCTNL

SMILES | Papp [4] | IC50 [6] | IC50 [7] | IC50 [5] | inhibition (INH) [10] | Ratio IC50 [11] | also measured
Nc1c2c(nc3cc(Cl)ccc13)CCCC2 | 26.1 ×10⁻⁶ cm/s | – | – | – | – | – | Drug metabolism [1]: Metabolite_Detected; Drug metabolism [2]: Metabolite_Detected; Drug metabolism [3]: Metabolite_Detected
COc1cc2c(cc1OCc1ccccc1)CCC(C)(CC(=O)NCCCCCCCCCNc1c3c(nc4cc(Cl)ccc14)CCCC3)O2 (configuration not stated) | 10.4 ×10⁻⁶ cm/s | 7.89 nM | 30.6 nM | – | – | – | IC50 ([5]; read-out: IC50): 7190 nM
COc1cc2c(cc1O)CCC(C)(CCN)O2 (configuration not stated) | 1 ×10⁻⁶ cm/s | 101000 nM | 23200 nM | – | – | – | inhibition [8]: inactive; inhibition [9]: inactive
COc1cc2c(cc1O)CCC(C)(CCC(=O)NCCCCCCNc1c3c(nc4cc(Cl)ccc14)CCCC3)O2 (configuration not stated) | 7.8 ×10⁻⁶ cm/s | 3.8 nM | 102 nM | Not Active | Not Active | – | –
COc1cc2c(cc1O)CCC(C)(CCNCCOCCOCCNc1c3c(nc4cc(Cl)ccc14)CCCC3)O2 (configuration not stated) | 9.7 ×10⁻⁶ cm/s | 8.35 nM | 180 nM | – | – | – | inhibition at 5 µM [10]: 19.9%
COc1cc2c(cc1O)CCC(C)(CCNCCCCCCCCCNc1c3c(nc4cc(Cl)ccc14)CCCC3)O2 (configuration not stated) | 10.1 ×10⁻⁶ cm/s | 0.27 nM | 18.3 nM | – | – | 2 | inhibition at 5 µM [10]: 28.1%
COC1=CC(=O)C2(CCC(C)(CC(=O)NCCCCCCCCNc3c4c(nc5cc(Cl)ccc35)CCCC4)O2)CC1=O (configuration not stated) | – | – | – | – | – | – | Drug metabolism [1]: Metabolite_Detected; Drug metabolism [2]: Metabolite_Detected; Drug metabolism [3]: Metabolite_Detected
COc1cc2c(cc1OCc1ccccc1)CCC(C)(CC(=O)NCCCCCCNc1c3c(nc4cc(Cl)ccc14)CCCC3)O2 (configuration not stated) | 10.7 ×10⁻⁶ cm/s | 11 nM | 201 nM | – | – | – | IC50 ([5]; read-out: IC50): 18000 nM
COc1cc2c(cc1O)CCC(C)(CC(=O)NCCCCCCCNc1c3c(nc4ccccc14)CCCC3)O2 (configuration not stated) | 6.6 ×10⁻⁶ cm/s | 111 nM | 4.28 nM | Not Active | Not Active | 7 | Ratio IC50 [12]: < 5
COc1cc2c(cc1O)CCC(C)(CC(=O)NCCOCCOCCNc1c3c(nc4cc(Cl)ccc14)CCCC3)O2 (configuration not stated) | 7 ×10⁻⁶ cm/s | 47.9 nM | 1840 nM | Not Active | Not Active | – | –
COc1cc2c(cc1O)CCC(C)(CCNCCCCCCCCNc1c3c(nc4cc(Cl)ccc14)CCCC3)O2 (configuration not stated) | 12.5 ×10⁻⁶ cm/s | 0.12 nM | 13.4 nM | – | – | 2 | Ki [13]: 0.132 nM; Ki [14]: 0.258 nM; Kd [15]: 2030 nM; inhibition at 5 µM [10]: 24.8%
COc1cc2c(cc1O)CCC(C)(CC(=O)NCCCCCCNc1c3c(nc4ccccc14)CCCC3)O2 (configuration not stated) | 4.3 ×10⁻⁶ cm/s | 275 nM | 4.99 nM | Not Active | Not Active | 7 | Ratio IC50 [12]: < 5
COc1cc2c(cc1OCc1ccccc1)CCC(C)(CC(=O)NCCCCCCCNc1c3c(nc4cc(Cl)ccc14)CCCC3)O2 (configuration not stated) | 11.5 ×10⁻⁶ cm/s | 6.99 nM | 51 nM | – | – | – | IC50 ([5]; read-out: IC50): 12500 nM
COc1cc2c(cc1O)CCC(C)(CCC(=O)NCCCCCCCCNc1c3c(nc4cc(Cl)ccc14)CCCC3)O2 (configuration not stated) | 8.7 ×10⁻⁶ cm/s | 6.23 nM | 148 nM | Not Active | Not Active | – | –
COC1=CC(=O)C(CCC(C)(O)CC(=O)NCCCCCCCCNc2c3c(nc4cc(Cl)ccc24)CCCC3)=CC1=O (configuration not stated) | – | – | – | – | – | – | Drug metabolism [1]: Metabolite_Detected; Drug metabolism [2]: Metabolite_Detected; Drug metabolism [3]: Metabolite_Detected
COc1cc2c(cc1O)CCC(C)(CC(=O)NCCCCCCCCNc1c3c(nc4ccccc14)CCCC3)O2 (configuration not stated) | 7.3 ×10⁻⁶ cm/s | 69.8 nM | 5.33 nM | Not Active | Not Active | 7 | Ratio IC50 [12]: < 5
COc1cc2c(cc1O)CCC(C)(CC(=O)NCCCCCCCNc1c3c(nc4cc(Cl)ccc14)CCCC3)O2 (configuration not stated) | 9.7 ×10⁻⁶ cm/s | 5.43 nM | 79.1 nM | Not Active | Not Active | – | –
COc1cc2c(cc1O)CCC(C)(CC(=O)NCCCCCCCCCNc1c3c(nc4ccccc14)CCCC3)O2 (configuration not stated) | 8.9 ×10⁻⁶ cm/s | 57.8 nM | 5.36 nM | – | – | 7 | Ratio IC50 [12]: < 5; inhibition at 5 µM [10]: 6.75%
COc1cc2c(cc1O)CCC(C)(CCC(=O)NCCCCCCCNc1c3c(nc4cc(Cl)ccc14)CCCC3)O2 (configuration not stated) | 8.3 ×10⁻⁶ cm/s | 7.94 nM | 187 nM | – | – | – | inhibition at 5 µM [10]: 14%
COc1cc2c(cc1O)CCC(C)(CC(=O)O)O2 (configuration not stated) | 0.4 ×10⁻⁶ cm/s | – | – | – | – | – | IC50 [16]: Not Active; IC50 [17]: Not Active
COc1cc(O)c(CCC(C)(O)CC(=O)NCCCCCCCCNc2c3c(nc4cc(Cl)ccc24)CCCC3)cc1O (configuration not stated) | – | – | – | – | – | – | Drug metabolism [1]: Metabolite_Detected; Drug metabolism [2]: Metabolite_Detected; Drug metabolism [3]: Metabolite_Detected
COc1cc2c(cc1O)CCC(C)(CC(=O)NCCCCCCCCCNc1c3c(nc4cc(Cl)ccc14)CCCC3)O2 (configuration not stated) | 8.2 ×10⁻⁶ cm/s | 2.05 nM | 168 nM | Not Active | Not Active | – | –
COc1cc2c(cc1O)CCC(C)(CCNCCCCCCCNc1c3c(nc4cc(Cl)ccc14)CCCC3)O2 (configuration not stated) | 10.3 ×10⁻⁶ cm/s | 0.44 nM | 17.4 nM | Not Active | Not Active | 2 | –
